Values of other authors, collected in US4138582A, “Cycloalkenyl analogues of prostaglandin A” (Miles Laboratories, Inc., priority 1977, dated 1979).
Entries after “also recorded” stand apart in the source; their conditions may differ. Read-outs that look alike come from different tables or passages of the source.

Columns and labels:
gastric secretion [1] = conditions: man
growth hormone = conditions: rats
gastric secretion [2] = conditions: dogs
human platelets = conditions: result in words
blood platelets = conditions: in vitro
[3] = test system: female reproductive system; conditions: fertility, labor, abortion, menstruation

Row | Structure (SMILES) | inhibition of gastric secretion (gastric secretion [1]) | growth hormone release / synthesis (growth hormone) | inhibition of gastric secretion (gastric secretion [2]) | inhibition of platelet aggregation by natural prostaglandin (human platelets) | inhibition of thrombogenesis (blood platelets) | effects in the female reproductive system [3]
1 | CCCCC[C@H](O)/C=C/[C@H]1C=CC(=O)[C@@H]1CCCCCCC(=O)O [PGA1] | exhibits similar activity in man | increased synthesis of that hormone | inhibit gastric secretion |  |  | 
2 | CCCCC[C@H](O)/C=C/[C@H]1[C@H](O)CC(=O)[C@@H]1CCCCCCC(=O)O [PGE1] |  | increase release of growth hormone | inhibit gastric secretion | displays similar activity | inhibits thrombogenesis in vitro | 
3 | CCCCC[C@H](O)/C=C/[C@H]1[C@H](O)CC(=O)[C@@H]1C/C=C\CCCC(=O)O [PGE2] |  | increase release of growth hormone | inhibit gastric secretion |  |  | exerts potent oxytocic effects in inducing labor
4 | CCCCC[C@H](O)/C=C/[C@@H]1[C@@H](C/C=C\CCCC(=O)O)[C@@H](O)C[C@H]1O [PGF2α] |  |  |  |  |  | has centragestational effects; also recorded: appears to be involved in the mechanism of menstruation; also recorded: induces spontaneous abortions in early pregnancy
